Laboratory results reported in patent publication US4609549A, “Biologically active substance from Islets-Activating Protein” (Kaken Pharmaceutical Co., Ltd., priority 1983, dated 1986).

What was measured:
[1] = test system: pertussis 18-323 strain (I-phase); test: Infection prevention test (survival after intracerebral inoculation of live pertussis bacteria); type: in vivo, Bordetella pertussis (ddY mice, male); conditions: two weeks after inoculation
Protocol: (ii) The IAP processed into toxoid with glutaraldehyde (hereinafter referred to as toxoid-processed IAP) used as the comparative example was prepared in the following precedures. To 0.1M phosphate buffer solution (containing 2M urea, pH 7.0) containing IAP (0.5 mg/ml) adjusted to pH 9.0 by adding 1N sodium hydroxide, was added a 25% aqueous solution of glutaraldehyde so that the final concentration of glutaraldehyde would become 0.05%. The mixed solution was reacted under stirring at room temperature for 22 hours. The resultant solution was then sufficiently dialyzed against a 0.1M phosphate buffer solution (containing 2M urea, pH 7.0) to obtain the toxoid-processed IAP.
(iii) A toxoid-processed reductively methylated IAP was also similarly prepared by using a reductively methylated IAP solution in place of an IAP solution.
There were prepared five kinds of the physiological saline solutions containing a dead pertussis vaccine (made by KAKEN PHARMACEUTICAL CO., LTD.), toxoid-processed IAP, toxoid-processed reductively methylated IAP, IAP and reductively methylated IAP, respectively, and 0.1 ml of each of these physiological saline solutions was administered into the peritoneal cavities of the ddY mice (male, 4 weeks old) (13 mice per one group). Two weeks after the administration, the live pertussis 18-323 strain (I-phase) bacteria were inoculated into the encephalon at a rate of 4×10^4cells/animal. […] Used as the control was a group of mice which were treated similarly by giving 0.1 ml of a physiological saline solution alone into the peritoneal cavity.

[2] = Stability of IAP (heat, moisture); type: physicochemical
Protocol: (§1) The powder of IAP obtained by freeze-drying the aqueous dialysed and de-salted solution is non-deliquescent, and white or light brown in colour, and is soluble in water to the extent of 3 to 5 mg/ml at room temperature. […] When IAP is put into aqueous 6N hydrochloric acid solution, a precipitate white in colour separates out. Addition of sodium sulfate, dry ice plus acetone, ethanol, trichloroacetic acid, aqueous solution of zinc chloride, or aqueous solutions containing several other kinds of metal ions to an aqueous solution of IAP at 4° C., causes the aqueous solution to become turbid and a precipitate to settle out. When IAP is put into a mixture of water and chloroform or of water and n-butanol, IAP gathers on the interface of both liquids.
In addition, when IAP is dissolved into aqueous 0.1M phosphate buffer solution of pH of 7.0 containing sodium chloride at 0.5M and the solution is subjected to dialysis against distilled water as the external liquid, the mixed solution becomes turbid once, however, with the progress of dialysis, the white turbidity disappears completely.

leukocyte count [3] = test: Stability in methylamine solution: change with time of ΔLP activity; type: in vivo, male Wistar rats; conditions: 3.44M methylamine solution (pH 9.5)
From the text: (§2) ΔLP activity=(leukocyte count in sample-administered
(§3) group)-(leukocyte count in control group)
(§4) The stability in an amine-containing alkaline solution of the modified IAP of the present invention and an IAP amidino derivative disclosed in Japanese Patent Application Laid-Open No. 129295/80 (Application No. 35877/79) was examined.

Isoelectric point = type: physicochemical
From the text: The isoelectric point of IAP determined by the method described in Wringley, C.W., "J. Chromatogr.", 36, 362-372 (1968) is pH 8.9±0.5.

ddY mice = test: Acute toxicity (LD50), intravenous; type: in vivo; conditions: i.v., ddY mice (male)
From the text: (§5) The control is non-modified IAP.

secretion of insulin = test: Activity of promoting the secretion of insulin; type: in vivo, mammals
From the text: The definition of the activity units used in the present invention is described in Japanese Patent Application Laying Open No. 96392/72 which corresponds to G.B. Patent No. 1,569,046.

[4] = test system: Epinephrine hyperglycemia; test: Epinephrine hyperglycemia inhibitory activity (EpI activity) one day after administration; type: in vivo; conditions: 12 μg/kg i.v., male Wistar rats
Protocol: IV. Epinephrine hyperglycemia inhibitory activity (EpI activity)
(§6) Each sample is intravenously injected to the male Wistar rats (about 150 g body weight) at a dose of 12 μg/kg, and after sample injection, epinephrine is subcutaneously injected to the rats under fast on a daily basis. The difference between blood sugar level before epinephrine injection and that one hour after injection is compared with the difference in the control group to thereby determine the EpI activity (%).
(§7) ΔGC : control group [(blood sugar level after epinephrine injection)-(blood sugar level before injection)]
(§8) ΔGT : sample-administered group [(blood sugar level after epinephrine injection)-(blood sugar level before injection)] [formula]
as §5

Solubility = type: physicochemical; conditions: pyridine, 2-mercaptoethanol, aqueous sodium dodecylsulfate and cystine
Protocol: as §1

leukocyte count [5] = test: Leukocytosis-promoting activity (ΔLP activity) one day after administration; conditions: 12 μg/kg i.v., male Wistar rats
Protocol: V. Leukocytosis-promoting activity (ΔLP activity)
Each sample is intravenously injected into male Wister rats (about 150 g body weight) at a rate of 12 μg/kg, and the leukocyte count is measured on a daily basis. The leukocyte increment is determined from the difference in leukocyte count between the sample-administered group and the control group.
as §2, §3
The pharmacological activity, acute toxicity, and stability in an alkaline solution, of the resultant products obtained in the Examples were examined in the manners described above.
as §5

[6] = test system: Epinephrine hyperglycemia; test: Stability in methylamine solution: change with time of EpI activity; type: in vivo, male Wistar rats; conditions: 3.44M methylamine solution (pH 9.5)
Protocol: as §6, §7, §8, §4

glucose tolerance = test: Glucose tolerance; type: in vivo; conditions: mammals

Substance: IAP: Islets-Activating Protein obtained by the cultivation of suitable strain(s) of the microorganism Bordetella pertussis (Phase I or II)
- Number of animals which survived/total number of animals tested ([1]; 0.04 μg/animal i.p.): 6/13
- Survival rate ([1]; 0.04 μg/animal i.p.): 46%
- Number of animals which survived/total number of animals tested ([1]; 0.2 μg/animal i.p.): 8/13
- Survival rate ([1]; 0.2 μg/animal i.p.): 62%
- Number of animals which survived/total number of animals tested ([1]; 1 μg/animal i.p.): 3/13
- Survival rate ([1]; 1 μg/animal i.p.): 23%
- deliquescence of freeze-dried powder [2]: non-deliquescent
- stability of aqueous solution on heating ([2]; heated to 80° C. or higher): the solution becomes turbid white in colour
- ΔLP activity (leukocyte count [3]; treatment time 0 hr): 144 × 10^2 /mm^3
- ΔLP activity (leukocyte count [3]; treatment time 24 hr): 141 × 10^2 /mm^3
- ΔLP activity (leukocyte count [3]; treatment time 48 hr): 138 × 10^2 /mm^3
- ΔLP activity (leukocyte count [3]; treatment time 72 hr): 139 × 10^2 /mm^3
- isoelectric point (Isoelectric point): 8.9±0.5 pH
- LD50 (ddY mice): 0.215 mg/kg
- duration of insulin secretion promoting and glucose tolerance improving actions (secretion of insulin; after a single administration): several weeks to several months
- activity of promoting the secretion of insulin (secretion of insulin; in vivo): not less than 193 unit/μg
- EpI activity [4]: 85.0%
- solubility in other solvents (Solubility): soluble in pyridine, 2-mercaptoethanol and aqueous solution of sodium dodecylsulfate and of cystine
- ΔLP activity (leukocyte count [5]): 140.1 × 10^2 /mm^3
- EpI activity ([6]; treatment time 0 hr): 82.0%
- EpI activity ([6]; treatment time 24 hr): 83.0%
- EpI activity ([6]; treatment time 48 hr): 80.5%
- EpI activity ([6]; treatment time 72 hr): 79.8%
- activity of improving the glucose tolerance (glucose tolerance): improving the glucose tolerance in mammals
